Measurements reported in PubChem BioAssay (NCI).
Values joined by “and” are separate entries in the source; they are usually repeats but may differ in a detail not shown here. Equal values may be shown once.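 The compound was tested at five concentrations on cells cultured in 96-well plates, with a 48-hour exposure period. At the GI50, growth is halved. TGI denotes the concentration required for complete inhibition of growth.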

Key:
Assay in all cases: growth of human tumour cells (NCI), 48 h
HL-60(TB) leukemia = system: HL-60(TB) leukemia
IGROV1 ovarian = system: IGROV1 ovarian
SF-268 CNS = system: SF-268 CNS
SW-620 colon = system: SW-620 colon
T-47D breast = system: T-47D breast
HOP-62 NSCLC = system: HOP-62 NSCLC
SK-MEL-28 melanoma = system: SK-MEL-28 melanoma
SF-295 CNS = system: SF-295 CNS
BT-549 breast = system: BT-549 breast
NCI-H226 lung = system: NCI-H226 lung

SMILES	TGI (HL-60(TB) leukemia)	TGI (IGROV1 ovarian)	TGI (SF-268 CNS)	TGI (SW-620 colon)	TGI (T-47D breast)	TGI (HOP-62 NSCLC)	TGI (SK-MEL-28 melanoma)	TGI (SF-295 CNS)	TGI (BT-549 breast)	TGI (NCI-H226 lung)	GI50 (HL-60(TB) leukemia)	GI50 (IGROV1 ovarian)	GI50 (SF-268 CNS)	GI50 (SW-620 colon)	GI50 (HOP-62 NSCLC)	GI50 (SK-MEL-28 melanoma)	GI50 (SF-295 CNS)	GI50 (BT-549 breast)	GI50 (NCI-H226 lung)	GI50 (T-47D breast)
Nc1nc(-c2ccccc2)nc2c1[n+]([O-])c1ccccc1[n+]2[O-]	> 100 µM	> 100 µM	> 100 µM	> 100 µM	> 100 µM	> 100 µM	> 100 µM	> 100 µM	> 100 µM	> 100 µM										
COC(=O)CCCC(=O)O		> 100 µM	> 100 µM	> 100 µM	> 100 µM	> 100 µM	> 100 µM	> 100 µM	> 100 µM	> 100 µM										
CS(=O)(=O)N(N(CCCl)S(=O)(=O)c1ccccc1)S(C)(=O)=O	> 100 µM		> 100 µM	> 100 µM		> 100 µM	> 100 µM	> 100 µM		> 100 µM										
O=[N+]([O-])c1cccc(C2ON2C2CCCCC2)c1 (centres undefined)	47.9 µM	44.8 µM	51 µM	24.7 µM		81.3 µM	> 100 µM	> 100 µM												
NC(=O)c1ccc2nc(-c3ccc(Oc4ccc(Cl)cc4)cc3)[nH]c2c1	58.7 µM and 41.2 µM	75 µM and 36.2 µM	75 µM and 46.2 µM	75 µM and 25.9 µM	> 75 µM and 20.7 µM	75 µM and 36.1 µM	75 µM and 29 µM	> 75 µM	67.1 µM and 28.2 µM	75 µM and 57.6 µM	12.4 µM and 17.3 µM	30.9 µM and 15.9 µM	36.7 µM and 19.2 µM	23 µM and 9.61 µM	48.4 µM and 13.7 µM	40.4 µM and 15.6 µM	> 75 µM	18 µM and 12.9 µM	49.1 µM and 14 µM	
C1=CC=C2NCCCNC3=CC=CC=CC3=NCCCN=C2C=C1	> 100 µM	> 100 µM	> 100 µM	> 100 µM		> 100 µM	> 100 µM	> 100 µM		> 100 µM										
O=C(CC1(O)C(=O)Nc2c(Cl)cc(Cl)cc21)c1cccc2ccccc12 (centres undefined)	26.5 µM	36.9 µM	40.4 µM	31.8 µM		30.6 µM	34.1 µM	29.2 µM		31.1 µM										
O=C(Cc1nc2ccccc2s1)Nc1cccc(C(F)(F)F)c1	17.8 µM	25.9 µM	29.7 µM	43.2 µM		32.7 µM	28.8 µM	30.7 µM		44.7 µM										
O=[N+]([O-])c1cccc(-c2oc(C=Nc3ccccc3)c([N+](=O)[O-])c2-c2cccc([N+](=O)[O-])c2)c1	> 100 µM	> 100 µM	> 100 µM	> 100 µM		> 100 µM	> 100 µM	> 100 µM		> 100 µM										
CCC(=O)c1c(NOC2OC(COC(C)=O)C(OC(C)=O)C(OC(C)=O)C2OC(C)=O)nc(OC)n(C)c1=O (centres undefined)		> 100 µM	> 100 µM	> 100 µM		> 100 µM	> 100 µM	> 100 µM		> 100 µM										
COC1OC(COCc2ccc(Cl)cc2)C(OCc2ccc(Cl)cc2)C1N=[N+]=[N-] (centres undefined)		> 100 µM		> 100 µM			> 100 µM	> 100 µM		> 100 µM										
CN1c2ccccc2C(C)(C)C12C=Cc1cc(O)ccc1O2 (centres undefined)	11.8 µM	14.9 µM	10.5 µM	13.8 µM	16.9 µM	10.6 µM	15.5 µM	12.8 µM		28.8 µM	1.89 µM	4.69 µM	2.76 µM	3.4 µM	3.44 µM	3.94 µM	2.71 µM		13.3 µM	4 µM
COc1ccc(OC)c(/C=C(/C)[N+](=O)[O-])c1		8.39 µM	5.22 µM	3.78 µM	2.87 µM	4.86 µM	4.73 µM	24.8 µM	18.5 µM	27.9 µM		2.97 µM	2.12 µM	1.79 µM	2.31 µM	2.22 µM	11.2 µM	5.4 µM	13.8 µM	1.16 µM
CC1(C)Cc2cc(C(=O)O)c3c(c2C1=O)COCC3	> 100 µM	> 100 µM	> 100 µM	> 100 µM		> 100 µM		> 100 µM		> 100 µM										
COc1cc2c(cc1C)NC(=O)/C2=C\c1cccc(Oc2ccccc2)c1	26.8 µM	29.4 µM	31.5 µM	32.9 µM	81.4 µM		34.9 µM	31.8 µM	27.9 µM	38.1 µM	11.9 µM	14.5 µM	13.9 µM	16.1 µM		18.1 µM	16.8 µM	12.8 µM	21 µM	11.4 µM
N#CSCC1CC(O)(c2ccccc2)CC(c2ccc(F)cc2)O1 (centres undefined)		12 µM	3.3 µM	3.74 µM	4.98 µM	3.61 µM	15.4 µM	3.34 µM	4.31 µM			3.19 µM	1.65 µM	2.07 µM	1.99 µM	4.23 µM	1.64 µM	1.94 µM		1.78 µM
Cn1ccnc1C(=O)/C=C/c1ccccc1	7.73 µM	14 µM		12.4 µM	7.35 µM	14.4 µM	5.97 µM	29.1 µM	8.48 µM	14.9 µM	2.79 µM	2.66 µM		3.58 µM	4.44 µM	2.61 µM	11.4 µM	3.63 µM	3.24 µM	2.78 µM
Cc1c(COc2cc(OCc3cccc(C#N)c3)c(CN3C[C@H](O)C[C@@H]3C(=O)O)cc2Cl)cccc1-c1ccc2c(c1)OCCO2		32.5 µM	42.6 µM	31.5 µM	47 µM	38.6 µM	26.1 µM	22.6 µM	21.8 µM	31.9 µM		16.3 µM	21.1 µM	16.7 µM	19.8 µM	13.3 µM	10.7 µM	7.58 µM	8.86 µM	19.8 µM
